Patent US20020061888A1, “Combination therapy for the prophylaxis and treatment of hyperlipidemic conditions and disorders” (priority 2000, published 2002)

Assays:
Format in all cases: in vivo
Male beagle dogs [1] = experiment: Fecal bile acid concentration in beagle dogs (enzymatic 3α-hydroxysteroid dehydrogenase assay of fecal extracts); settings: pravastatin monotherapy 10 mg/kg/day; for FECAL BILE ACID CONCENTRATION: n = 6
Method: Male beagle dogs (9-10 kg) obtained from Marshall farms were fed a normal chow diet once a day for a two hour interval and given water ad libitum. Prior to initiating treatment, the dogs were weighed and blood samples were drawn from the cephalic vein of each dog following an overnight fast to evaluate pretreatment serum total cholesterol levels at the start of the study. […] All doses were administered in gelatin capsules per os to each dog between 9:00-9:30 a.m. prior to feeding. All animals were fed between 9:30-10:00 a.m. and were allowed two hours to eat, at which time any remaining food was removed. […] Three consecutive 24 hour fecal samples were collected for each group during the last 72 hours of each week and used to measure the concentration of fecal biles acids excreted during that time period.
Fecal samples were collected to determine the fecal bile acid (“FBA”) concentration for each animal. Three consecutive 24 hour fecal samples were collected between 8:00 a.m. and 9:00 a.m. each day, prior to dosing and feeding, during the last 72 hour period of each week. The separate daily collections from each dog were weighed, combined and homogenized with distilled water in a food processor to generate a homogeneous slurry. A 1.4 g sample of fecal homogenate was extracted with 2.6 mL of a solution containing tertiary butanol:distilled water in the ratio of 2:0.6 (final concentration of 50% tertiary butanol v/v distilled water) for 45 minutes in a 37° C. water bath and centrifuged for 13 minutes at 2000 x g. The concentration of bile acids (μmoles/gram homogenate) was determined using a 96-well enzymatic assay system described in van der Meer et al., “t-Butanol Extraction of Feces: A Rapid Procedure For Enzymic Determination Of Fecal Bile Acids”, Cholesterol, Metabolism in Health and Disease: Studies in the Netherlands, edited by Beynen, et al., Ponsen and Looyen, Wageningen, 1985; and Turley et al., “Re-evaluation of the 3 Alpha-Hydroxysteroid Dehydrogenase Assay For Total Bile Acids In Bile”, J. Lipid Research, 19:924-928, 1978.
A 20 μL aliquot of each fecal extract was added to each of two sets of triplicate wells in a 96-well assay plate. A standardized sodium taurocholate solution and a standardized fecal extract solution (previously made from pooled samples and characterized for its bile acid concentration) were also analyzed for assay quality control. A standard curve of five points containing 30-540 nmoles/well was generated by serial dilutions of an initial 20 μL aliquot of 90 mM sodium taurocholate. A 230 μL aliquot of a reaction mixture containing 1M hydrazine hydrate, 0.1 M pyrophosphate and 0.46 mg/ml NAD was added to each well. Subsequently, a 50 μL aliquot of either 3α-hydroxysteroid dehydrogenase (“HSD”) enzyme (0.8 units/mL) or assay buffer (0.1 M sodium pyrophosphate) was then added to one each of the two sets of triplicates. Following 60 minutes of incubation at room temperature, the optical density at 340 nm was measured and the mean of each set of triplicate samples was calculated. The difference in optical density with and without HSD enzyme was used to determine the bile acid concentration (mM) of each sample based on the sodium taurocholate standard curve. The bile acid concentration of the extract (μmoles/gram homogenate), the total weight of the fecal homogenate (grams) and the body weight of the dogs (kg) were used to calculate the corresponding fecal bile acid concentration in μtmoles/kg/day for each animal.
All reagents used for the assay were obtained from Sigma Chemical Co., St. Louis, Mo. (HSD enzyme—catalog # H-1506; NAD—catalog # N1636; sodium taurocholate—catalog # T-4009).

Male beagle dogs [2] = experiment: Serum triglyceride in beagle dogs; settings: n = 6
Method: Following this initial four week dose-ranging study, dogs from the two groups receiving 10 mg/kg/day pravastatin (a.m. and p.m. dosing groups) were randomized into two new treatment groups based on serum total cholesterol levels to initiate the combination treatment study. […] Dosing continued in this manner for an additional four weeks (Weeks 5-8) with blood and 48-hour fecal samples collected at the end of each week for serum lipid measurements and fecal bile acid determinations, respectively. […] At the end of this three-week period, pravastatin dosing and all empty capsule dosing were discontinued and blood samples were collected weekly for a final three weeks (weeks 12-14) to monitor the return of serum total cholesterol levels back to baseline.
Blood was collected from the cephalic vein of each dog into serum separator tubes. The blood was centrifuged at 900×g for 20 minutes at room temperature and the serum decanted. All analyses were performed on a Cobas Mira Clinical Analyzer System (Roche Diagnostic Systems, Branchburg, N.J.) using Roche Diagnostic reagents for enzymatic determinations of serum cholesterol and triglycerides. Commercial calibrator and quality control materials were analyzed with each run to verify assay accuracy and precision. A two-tailed, paired Students t-test was used to determine the statistical significance of changes in total serum cholesterol in treated animals compared to their pretreatment values. A two-sample, two-tailed unequal variance Students t-test was used to determine serum total cholesterol and triglyceride changes in the combination therapy group compared to the monotherapy groups. […]

Male beagle dogs [3] = experiment: Serum total cholesterol in beagle dogs (serum lipid measurements); settings: pravastatin 16.0 mg/kg/day, Week 3, mean ± SEM, n = 6

## CC[C@H](C)C(=O)O[C@H]1C[C@H](O)C=C2C=C[C@H](C)[C@H](CC[C@@H](O)C[C@@H](O)CC(=O)O)[C@H]21 [pravastatin, Pravastatin]
Male beagle dogs [1]; Week 5
  % change in fecal bile acid concentration from Week 0: (−54) %
Male beagle dogs [1]; Week 5, mean ± SEM
  FECAL BILE ACID CONCENTRATION: 17 ± 5 µmol/kg/day
Male beagle dogs [1]; Week 6
  % change in fecal bile acid concentration from Week 0: (−38) %
Male beagle dogs [1]; Week 6, mean ± SEM
  FECAL BILE ACID CONCENTRATION: 23 ± 7 µmol/kg/day
Male beagle dogs [1]; Week 7
  % change in fecal bile acid concentration from Week 0: (−19) %
Male beagle dogs [1]; Week 7, mean ± SEM
  FECAL BILE ACID CONCENTRATION: 30 ± 6 µmol/kg/day
Male beagle dogs [1]; Week 8
  % change in fecal bile acid concentration from Week 0: (−30) %
Male beagle dogs [1]; Week 8, mean ± SEM
  FECAL BILE ACID CONCENTRATION: 26 ± 9 µmol/kg/day
Male beagle dogs [1]; Week 9
  % change in fecal bile acid concentration from Week 0: (−24) %
Male beagle dogs [1]; Week 9, mean ± SEM
  FECAL BILE ACID CONCENTRATION: 28 ± 5 µmol/kg/day
Male beagle dogs [1]; Week 10
  % change in fecal bile acid concentration from Week 0: (−24) %
Male beagle dogs [1]; Week 10, mean ± SEM
  FECAL BILE ACID CONCENTRATION: 28 ± 6 µmol/kg/day
Male beagle dogs [2]; pravastatin monotherapy 10 mg/kg/day, dosed Weeks 1-11, Week 4, mean ± SEM
  TOTAL SERUM TRIGLYCERIDE: 30 ± 4 mg/dL
Male beagle dogs [2]; pravastatin monotherapy 10 mg/kg/day, dosed Weeks 1-11, Week 5, mean ± SEM
  TOTAL SERUM TRIGLYCERIDE: 34 ± 3 mg/dL
Male beagle dogs [2]; pravastatin monotherapy 10 mg/kg/day, dosed Weeks 1-11, Week 6, mean ± SEM
  TOTAL SERUM TRIGLYCERIDE: 35 ± 4 mg/dL
Male beagle dogs [2]; pravastatin monotherapy 10 mg/kg/day, dosed Weeks 1-11, Week 7, mean ± SEM
  TOTAL SERUM TRIGLYCERIDE: 37 ± 3 mg/dL
Male beagle dogs [2]; pravastatin monotherapy 10 mg/kg/day, dosed Weeks 1-11, Week 8, mean ± SEM
  TOTAL SERUM TRIGLYCERIDE: 38 ± 5 mg/dL
Male beagle dogs [2]; pravastatin monotherapy 10 mg/kg/day, dosed Weeks 1-11, Week 9, mean ± SEM
  TOTAL SERUM TRIGLYCERIDE: 34 ± 2 mg/dL
Male beagle dogs [2]; pravastatin monotherapy 10 mg/kg/day, dosed Weeks 1-11, Week 11, mean ± SEM
  TOTAL SERUM TRIGLYCERIDE: 33 ± 3 mg/dL
Male beagle dogs [2]; pravastatin monotherapy group, dosing terminated after Week 11, Week 12, mean ± SEM
  TOTAL SERUM TRIGLYCERIDE: 46 ± 4 mg/dL
Male beagle dogs [2]; pravastatin monotherapy group, dosing terminated after Week 11, Week 13, mean ± SEM
  TOTAL SERUM TRIGLYCERIDE: 44 ± 3 mg/dL
Male beagle dogs [2]; pravastatin monotherapy group, dosing terminated after Week 11, Week 14, mean ± SEM
  TOTAL SERUM TRIGLYCERIDE: 40 ± 4 mg/dL
Male beagle dogs [3]
  SERUM TOTAL CHOLESTEROL: 134 ± 13^2 mg/dL
